Columns and labels:
Test in all cases: Bliss excess, mean over the matrix (fraction); higher = more synergy
[1] = tested on: 647-V (Bladder Carcinoma)
Outline: (§1)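 Bliss excess equals the observed combination effect minus the expected value EA + EB − EA·EB, where EA and EB are the effects of each agent alone. Combination Emax is the second-highest inhibition within the matrix. Inhibition was scaled from CellTiter-Glo 2.0 luminescence, with 0 set by vehicle wells and 1 by blank wells, after 72 hours of two-drug dosing of cells plated in 1536-well plates.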

A172 (Glioblastoma) = tested on: A172 (Glioblastoma)
Outline: as §1

D-392MG (Glioblastoma) = tested on: D-392MG (Glioblastoma)
Outline: as §1

[2] = tested on: EFM-192A (Breast Carcinoma)
Outline: as §1

EW-22 (Ewing's Sarcoma) = tested on: EW-22 (Ewing's Sarcoma)
Outline: as §1

H4 (Low Grade Glioma) = tested on: H4 (Low Grade Glioma)
Outline: as §1

HuO9 (Osteosarcoma) = tested on: HuO9 (Osteosarcoma)
Outline: as §1

[3] = tested on: KG-1 (Acute Myeloid Leukemia)
Outline: as §1

MSTO-211H (Mesothelioma) = tested on: MSTO-211H (Mesothelioma)
Outline: as §1

[4] = tested on: NOMO-1 (Acute Myeloid Leukemia)
Outline: as §1

[5] = tested on: PA-TU-8902 (Pancreatic Carcinoma)
Outline: as §1

[6] = tested on: SKN-3 (Head and Neck Carcinoma)
Outline: as §1

[7] = tested on: SLVL (B-Cell Non-Hodgkin's Lymphoma)
Outline: as §1

[8] = tested on: SNU-61 (Colorectal Carcinoma)
Outline: as §1

[9] = tested on: SW48 (Colorectal Carcinoma)
Outline: as §1

[10] = tested on: SW948 (Colorectal Carcinoma)
Outline: as §1

[11] = tested on: TYK-nu (Ovarian Carcinoma)
Outline: as §1

[12] = tested on: U-118-MG (Low Grade Glioma)
Outline: as §1

[13] = tested on: WSU-DLCL2 (B-Cell Non-Hodgkin's Lymphoma)
Outline: as §1

[14] = tested on: YT (Other Blood Carcinomas)
Outline: as §1

SMILES	Bliss excess [1]	Bliss excess (A172 (Glioblastoma))	Bliss excess (D-392MG (Glioblastoma))	Bliss excess [2]	Bliss excess (EW-22 (Ewing's Sarcoma))	Bliss excess (H4 (Low Grade Glioma))	Bliss excess (HuO9 (Osteosarcoma))	Bliss excess [3]	Bliss excess (MSTO-211H (Mesothelioma))	Bliss excess [4]	Bliss excess [5]	Bliss excess [6]	Bliss excess [7]	Bliss excess [8]	Bliss excess [9]	Bliss excess [10]	Bliss excess [11]	Bliss excess [12]	Bliss excess [13]	Bliss excess [14]
COc1cc2ncnc(Nc3ccc(F)c(Cl)c3)c2cc1OCCCN1CCOCC1 [Gefitinib] + CC(C)n1c(=O)n(C)c2cnc3cc(F)c(-c4ccc(OCCCN5CCCCC5)nc4)cc3c21 [AZD1390] (first compound max 10 µM, 7x7, partner max 0.3 µM)	-0.0735	-0.0554	-0.086	-0.0752	-0.0252	-0.0806	-0.058	-0.0507	-0.0571	-0.0347	-0.0693	-0.0688	-0.0591	-0.0929	-0.0516	-0.0215	-0.0851	-0.0498	0.0143	-0.0513
COc1nnc2ccc(N3CCC(c4ccc(OCCN5CCN(C)C(=O)[C@H]5C)cc4)CC3)nn12 [AZD5153] + Cc1c2c(nn1C)CSCc1cc(n(C)n1)CSc1cc(c3ccccc3c1)OCCCc1c(C(=O)O)n(C)c3c-2c(Cl)ccc13 [AZD5991] (first compound max 1 µM, 7x7, partner max 1 µM)	-0.0135	-0.0698	-0.0388	-0.0467	0.0553	-0.0287	0.0377	0.0382	0.0307	0.0355	-0.0316	-0.0234	-0.119	-0.0178	0.015	-0.0482	-0.0363	-0.0341	0.0182	-0.0316
COc1cccc(OCCCN)c1-c1cc(Nc2cnc(C#N)cn2)n[nH]1 [Prexasertib] + C[C@@H]1COCCN1C2=NC(=NC(=C2)C3(CC3)[S@](=N)(=O)C)C4=C5C=CNC5=NC=C4 [AZD6738] (first compound max 1 µM, 7x7, partner max 10 µM)	-0.0106	0.0013	0.0355	0.0131	-0.0326	0.0311	-0.0638	-0.0531	-0.0197	-0.0147	0.0229	-0.0347	-0.0455	-0.0693	0.0015	0.0334	-0.0604	-0.0136	0.0096	-0.0631
CC(=O)c1c(C)c2cnc(Nc3ccc(N4CCNCC4)cn3)nc2n(C2CCCC2)c1=O [Palbociclib] + Cc1c2c(nn1C)CSCc1cc(n(C)n1)CSc1cc(c3ccccc3c1)OCCCc1c(C(=O)O)n(C)c3c-2c(Cl)ccc13 [AZD5991] (first compound max 10 µM, 7x7, partner max 1 µM)	-0.0442	-0.0589	0.0189	-0.119	0.0039	-0.0371	0.0088	-0.0169	-0.0265	-0.0915	-0.0469	-0.0428	-0.0393	-0.0371	0.0255	0.0058	-0.0289	-0.0201	-0.0052	0.0006
CC1(C)CCC(CN2CCN(c3ccc(C(=O)NS(=O)(=O)c4ccc(NCC5CCOCC5)c([N+](=O)[O-])c4)c(Oc4cnc5[nH]ccc5c4)c3)CC2)=C(c2ccc(Cl)cc2)C1 [Venetoclax] + Cc1cc2ncnn2cc1Nc1ncc2c(n1)n(C1CCOCC1)c(=O)n2C [AZD7648] (first compound max 1 µM, 7x7, partner max 10 µM)	0.0316	-0.0385	-0.0374	-0.0046	-0.0094	-0.0541	0.0557	0.0848	-0.0564	0.02	-0.0715	-0.0193	0.0013	0.0023	0.0327	-0.0448	-0.0074	-0.0148	0.0706	-0.0667
COc1cccc(OCCCN)c1-c1cc(Nc2cnc(C#N)cn2)n[nH]1 [Prexasertib] + CN(C)CCCOc1ccc(-c2ccc3ncc4c(c3c2)n(C2CCOCC2)c(=O)n4C)cn1 [AZD0156] (first compound max 1 µM, 7x7, partner max 1 µM)	-0.0525	0.0542	-0.0235	0.0078	-0.05	-0.0309	-0.0958	-0.0289	-0.0164	-0.0154	0.0068	0.011	0.0036	-0.0459	-0.0227	0.0294	-0.0627	0.041	0.0086	-0.0114
CC1(C)CCC(CN2CCN(c3ccc(C(=O)NS(=O)(=O)c4ccc(NCC5CCOCC5)c([N+](=O)[O-])c4)c(Oc4cnc5[nH]ccc5c4)c3)CC2)=C(c2ccc(Cl)cc2)C1 [Venetoclax] + CN(C)CCCOc1ccc(-c2ccc3ncc4c(c3c2)n(C2CCOCC2)c(=O)n4C)cn1 [AZD0156] (first compound max 1 µM, 7x7, partner max 1 µM)	-0.0036	-0.0482	-0.0225	-0.0508	0.0003	-0.0861	0.0483	0.0741	-0.0243	0.0226	-0.0507	-0.0221	0.058	0.0062	-0.0216	-0.0001	-0.0516	-0.0076	0.0518	0.0204
CS(=O)(=O)CCNCc1ccc(-c2ccc3ncnc(Nc4ccc(OCc5cccc(F)c5)c(Cl)c4)c3c2)o1 [Lapatinib] + C[C@@H](Oc1cc(-c2cnn(C3CCNCC3)c2)cnc1N)c1c(Cl)ccc(F)c1Cl [Crizotinib] (first compound max 10 µM, 7x7, partner max 10 µM)	0.0097	-0.0564	-0.0528	0.0063	-0.0241	0.002	-0.069	-0.0028	-0.0667	-0.0755	0.0068	-0.0299	-0.0518	0.0198	-0.0662	-0.0834	-0.0403	-0.0194	-0.0162	-0.081
CC(=O)c1c(C)c2cnc(Nc3ccc(N4CCNCC4)cn3)nc2n(C2CCCC2)c1=O [Palbociclib] + Cn1cnc2c(F)c(Nc3ccc(Br)cc3Cl)c(C(=O)NOCCO)cc21 [Selumetinib] (first compound max 10 µM, 7x7, partner max 10 µM)	-0.035	0.0031	-0.0665	-0.0289	-0.0158	0.0308	-0.064	-0.0108	-0.0714	-0.014	0.0639	0.0345	-0.0355	0.0179	0.0668	-0.0078	-0.065	-0.0114	-0.0194	-0.0471
CC1(C)CCC(CN2CCN(c3ccc(C(=O)NS(=O)(=O)c4ccc(NCC5CCOCC5)c([N+](=O)[O-])c4)c(Oc4cnc5[nH]ccc5c4)c3)CC2)=C(c2ccc(Cl)cc2)C1 [Venetoclax] + C=CCn1c(=O)c2cnc(Nc3ccc(N4CCN(C)CC4)cc3)nc2n1-c1cccc(C(C)(C)O)n1 [AZD1775] (first compound max 1 µM, partner max 1 µM)	-0.0274	-0.0833	0.0593	-0.0253	0.139	0.0732	0.0227	0.201	-0.0183	0.0689	-0.0622	-0.0949	0.0249	-0.0321	0.0294	-0.0113	-0.107	-0.0704	0.0465	-0.0039
C[C@@H](c1ccc2nccn2c1)n1nnc2ncc(-c3cnn(C)c3)nc21 [Savolitinib] + CC1(C)CCC(CN2CCN(c3ccc(C(=O)NS(=O)(=O)c4ccc(NCC5CCOCC5)c([N+](=O)[O-])c4)c(Oc4cnc5[nH]ccc5c4)c3)CC2)=C(c2ccc(Cl)cc2)C1 [Venetoclax] (first compound max 1 µM, 7x7, partner max 1 µM)	-0.057	-0.0498	-0.0454	-0.0484	-0.0281	-0.0399	-0.0531	-0.015	-0.0501	-0.0561	-0.11	-0.0543	-0.0904	-0.0709	-0.0289	-0.0488	-0.0478	-0.0416	0.113	-0.0346
CN(CCO)CC[C@H](CSc1ccccc1)Nc1ccc(S(=O)(=O)NC(=O)c2ccc(N3CCC([C@@H](O)c4ccccc4-c4ccc(Cl)cc4)CC3)cc2)cc1S(=O)(=O)C(F)(F)F [AZD4320] + Cc1cc2ncnn2cc1Nc1ncc2c(n1)n(C1CCOCC1)c(=O)n2C [AZD7648] (first compound max 1 µM, 7x7, partner max 10 µM)	-0.0508	-0.0828	-0.0614	-0.0265	-0.0165	-0.0355	0.0482	0.0526	-0.0237	0.0103	-0.0429	-0.0463	0.0119	-0.0254	0.0314	-0.0233	-0.0405	-0.0154	0.0591	0.0291
Cc1cc2ncnn2cc1Nc1ncc2c(n1)n(C1CCOCC1)c(=O)n2C [AZD7648] + C[C@@H]1COCCN1C2=NC(=NC(=C2)C3(CC3)[S@](=N)(=O)C)C4=C5C=CNC5=NC=C4 [AZD6738] (first compound max 10 µM, 7x7, partner max 10 µM)	0.0987	-0.0552	0.0217	0.0421	0.0058	-0.0116	-0.0537	-0.0024	0.0403	0.0248	0.0186	-0.0279	-0.0178	0.0199	-0.0195	-0.0422	-0.034	-0.0049	-0.001	-0.0476
COc1cccc(OCCCN)c1-c1cc(Nc2cnc(C#N)cn2)n[nH]1 [Prexasertib] + O=C(c1cc(Cc2n[nH]c(=O)c3ccccc23)ccc1F)N1CCN(C(=O)C2CC2)CC1 [Olaparib] (first compound max 1 µM, 7x7, partner max 10 µM)	0.0459	-0.0474	-0.0698	-0.0365	-0.0447	-0.0306	0.0553	-0.0343	-0.0597	-0.027	-0.0783	-0.0113	-0.0051	-0.0407	-0.0795	-0.0118	-0.0934	-0.0445	-0.0311	-0.0314
